# Data from US20140205631A1, “Stimulation of vaccination by angiotensin peptides” (University of Southern California, priority 2013, published 2014).
# How the values were obtained:
# FIV-p24 antigen [1] = test: Vaginal secretion SIgA antibody titers (ELISA) after vaccination of cats; assay type: in vivo, feline immunodeficiency virus (FIV); conditions: for SIgA Anti-FIV-p24: vaginal, lowest dilution Undilute
# Description: (§1) Animals: Eleven (11) female outbred cats>24 weeks old that were free of FIV, feline leukemia virus (FeLV) and feline infectious peritonitis virus were employed. The animals were restrained for the application of test articles to mucous membranes and collection of blood and mucosal secretions. Sedation, if necessary, was induced by subcutaneous administration of ketamine hydrochloride (22 mg/kg) and acepromazine maleate (0.1 mg/kg). Euthanasia was accomplished with a lethal overdose of barbiturates. All activities were approved by the Institutional Animal Care and Use Committee and supervised by veterinary staff.
# (§2) Vaccine Preparation: Fel-O-Vax FIV (Fort Dodge Animal Health, Fort Dodge, Iowa) and A(1-7) was combined in a constant volume of 2% hydroxyethyl cellulose (2% HEC). The range of concentrations of A(1-7) ranged from 0 to 10 mg/mL with a constant 0.33 mL of Fel-O-Vax FIV suspended in each mL of the gel applied for vaccination purposes. Two control animals received intramuscular Fel-O-Vax FIV at baseline, week 3 and week 5. One control animal had mucosal vaccination with Fel-O-Vax alone suspended in the 2% HEC without A(1-7) and one control animal received intramuscular Fel-O-Vax FIV with 0.3 mg/kg of A(1-7) at baseline, week 3 and week 5.
# (§3) Delivery of angiotensin(1-7) and FIV vaccine to mucosal surfaces: 2% HEC, a viscous gel, was used as the vehicle for the topical delivery of angiotensin(1-7) and FIV vaccine. The topical vaccine was applied to the mucosal surface weekly for 6 consecutive weeks. 1.0 mL was applied to the muzzle for oral mucosal vaccination and 1.0 mL and 0.2 mL was instilled in the rectal and vaginal vaults, respectively for mucosal vaccination at these sites.
# (§4) Measurement of Local Immune Response: The Weck-Cel Surgical Spear (Windsor Biomedical, Newton, N.H.) was used to obtain secretions. Once inserted, the sponge is allowed to remain in place for 5 minutes. The secretions were extracted by centrifugation with 300 μL of a buffer solution. The buffer solution is prepared by mixing 50 μL of 100× protease inhibitor cocktail and 250 μL of 10% Igepal (Sigma, St Louis, Mo., U.S.A.) with 4.7 ml of phosphate-buffered saline (PBS) containing 0.25% bovine serum albumin (BSA, Fraction V; Sigma). The 100× protease inhibitor cocktail contains 100 μg/mL aprotinin, 500 μg/mL leupeptin, 100 μg/mL bestatin (all Sigma), and 50 μg/mL 4-(2-Aminoethyl)-benzenesulfonyl fluoride hydrochloride (Roche Applied Sciences, U.S.A.) in phosphate buffered saline.
# (§5) The local immune response in mucosal secretions was evaluated against the homologous FIV-p24 antigen (Cell Biolabs, Inc, San Diego, Calif.) or the heterologous HIV-gp120 antigen (ImmunoDiagnostics, Inc, Woburn, Mass.). Plates were prepared with 50 ng/mL FIV-p24 antigen or with 500 ng/mL HIV-gp120 antigen (Bachem Americans, Inc, Torrance, Calif.) incubated over night at 4° C., washed and the target sample added and incubated overnight again at 4° C. The plates were washed and the indicator goat anti-feline IgG (Accurate Chemical & Scientific Corp., Westbury, N.Y., working titer 1:10,000) or goat anti-feline IgA (Accurate Chemical & Scientific Corp., Westbury, N.Y., working titer 1:1,000) added and incubated for 24 hours at 4° C. Following a final wash, substrate solution was added. The stop solution was added after 15 minutes for the IgG reaction and after 30 minutes for the IgA reaction. Plates were read at 450 nm.
# FIV-p24 antigen [2] = test: Rectal secretion SIgA antibody titers (ELISA) after vaccination of cats; assay type: in vivo, feline immunodeficiency virus (FIV); conditions: for SIgA Anti-FIV-p24: rectal, lowest dilution Undilute
# Description: as §1, §2, §3, §4, §5
# HIV-gp120 antigen = test: Vaginal secretion SIgA antibody titers (ELISA) after vaccination of cats; assay type: in vivo, human immunodeficiency virus (HIV); conditions: for SIgA Anti-HIV gp120: vaginal, Week 8, lowest dilution 1:4, elution factor 300-fold
# Description: as §1, §2, §3
# Measurement of Local Immune Response: The Weck-Cel Surgical Spear (Windsor Biomedical, Newton, N.H.) was used to obtain secretions. […]
# The local immune response in mucosal secretions was evaluated against the homologous FIV-p24 antigen (Cell Biolabs, Inc, San Diego, Calif.) or the heterologous HIV-gp120 antigen (ImmunoDiagnostics, Inc, Woburn, Mass.). […] Plates were read at 450 nm.
# [3] = Topical application of FIV antigen with A(1-7)
# [4] = IM Fel-O-Vax FIV + 0.3 mg/kg A(1-7), Week 4
# [5] = IM Fel-O-Vax FIV + 0.3 mg/kg A(1-7), Week 6
# [6] = topical Fel-O-Vax FIV + 0.1 A(1-7) in 2% HEC, Week 2
# [7] = topical Fel-O-Vax FIV + 0.2 A(1-7) in 2% HEC, Week 2
# [8] = topical Fel-O-Vax FIV + 0.2 A(1-7) in 2% HEC, Week 8
# [9] = topical Fel-O-Vax FIV + 0.3 A(1-7) in 2% HEC, Week 6
# [10] = topical Fel-O-Vax FIV + 0.3 A(1-7) in 2% HEC, Week 8
# [11] = topical Fel-O-Vax FIV + 5.0 A(1-7) in 2% HEC, Week 4
# [12] = topical Fel-O-Vax FIV + 5.0 A(1-7) in 2% HEC, Week 6
# [13] = topical Fel-O-Vax FIV + 5.0 A(1-7) in 2% HEC, Week 8
# [14] = topical Fel-O-Vax FIV + 7.5 A(1-7) in 2% HEC, Week 2
# [15] = topical Fel-O-Vax FIV + 7.5 A(1-7) in 2% HEC, Week 4
# [16] = topical Fel-O-Vax FIV + 7.5 A(1-7) in 2% HEC, Week 8
# [17] = topical Fel-O-Vax FIV + 10.0 A(1-7) in 2% HEC, Week 2
# [18] = topical Fel-O-Vax FIV + 10.0 A(1-7) in 2% HEC, Week 6
# [19] = topical Fel-O-Vax FIV + 10.0 A(1-7) in 2% HEC, Week 8
substance,measurement,setting,value
Asp-Arg-Val-Tyr-Ile-His-Pro (DRVYIHP) [A(1-7)],SIgA against FIV-p24 in vaginal secretions,FIV-p24 antigen [1]; [3],only low levels
same,SIgA Anti-FIV-p24,"FIV-p24 antigen [1]; IM Fel-O-Vax FIV + 0.3 mg/kg A(1-7), Week 2",Negative
same,SIgA Anti-FIV-p24,FIV-p24 antigen [1]; [4],Undilute
same,SIgA Anti-FIV-p24,FIV-p24 antigen [1]; [5],Undilute
same,SIgA Anti-FIV-p24,FIV-p24 antigen [1]; [6],Undilute
same,SIgA Anti-FIV-p24,"FIV-p24 antigen [1]; topical Fel-O-Vax FIV + 0.1 A(1-7) in 2% HEC, Week 4",Undilute
same,SIgA Anti-FIV-p24,FIV-p24 antigen [1]; [7],Undilute
same,SIgA Anti-FIV-p24,FIV-p24 antigen [1]; [8],Undilute
same,SIgA Anti-FIV-p24,FIV-p24 antigen [1]; [9],Undilute
same,SIgA Anti-FIV-p24,FIV-p24 antigen [1]; [10],Negative
same,SIgA Anti-FIV-p24,"FIV-p24 antigen [1]; topical Fel-O-Vax FIV + 5.0 A(1-7) in 2% HEC, Week 2",Negative
same,SIgA Anti-FIV-p24,FIV-p24 antigen [1]; [11],Negative
same,SIgA Anti-FIV-p24,FIV-p24 antigen [1]; [12],Negative
same,SIgA Anti-FIV-p24,FIV-p24 antigen [1]; [13],Negative
same,SIgA Anti-FIV-p24,FIV-p24 antigen [1]; [14],Negative
same,SIgA Anti-FIV-p24,FIV-p24 antigen [1]; [15],Negative
same,SIgA Anti-FIV-p24,"FIV-p24 antigen [1]; topical Fel-O-Vax FIV + 7.5 A(1-7) in 2% HEC, Week 6",Negative
same,SIgA Anti-FIV-p24,FIV-p24 antigen [1]; [16],Negative
same,SIgA Anti-FIV-p24,FIV-p24 antigen [1]; [17],Negative
same,SIgA Anti-FIV-p24,FIV-p24 antigen [1]; [18],Negative
same,SIgA Anti-FIV-p24,FIV-p24 antigen [1]; [19],Negative
same,"SIgA-anti-FIV-p24 (rectal, Table 4)",FIV-p24 antigen [2]; both methods of vaccination (parenteral or topical Fel-O-Vax FIV with A(1-7)),Low levels
same,mucosal anti-FIV antibodies in the rectum,FIV-p24 antigen [2]; injection of A(1-7) with FIV antigens,increased
same,SIgA Anti-FIV-p24,FIV-p24 antigen [2]; [4],Undilute
same,SIgA Anti-FIV-p24,FIV-p24 antigen [2]; [5],Negative
same,SIgA Anti-FIV-p24,"FIV-p24 antigen [2]; IM Fel-O-Vax FIV + 0.3 mg/kg A(1-7), Week 8",Undilute
same,SIgA Anti-FIV-p24,FIV-p24 antigen [2]; [6],Undilute
same,SIgA Anti-FIV-p24,"FIV-p24 antigen [2]; topical Fel-O-Vax FIV + 0.1 A(1-7) in 2% HEC, Week 6",Undilute
same,SIgA Anti-FIV-p24,"FIV-p24 antigen [2]; topical Fel-O-Vax FIV + 0.1 A(1-7) in 2% HEC, Week 8",Undilute
same,SIgA Anti-FIV-p24,FIV-p24 antigen [2]; [7],Undilute
same,SIgA Anti-FIV-p24,"FIV-p24 antigen [2]; topical Fel-O-Vax FIV + 0.2 A(1-7) in 2% HEC, Week 6",Negative
same,SIgA Anti-FIV-p24,FIV-p24 antigen [2]; [8],Negative
same,SIgA Anti-FIV-p24,"FIV-p24 antigen [2]; topical Fel-O-Vax FIV + 0.3 A(1-7) in 2% HEC, Week 2",Undilute
same,SIgA Anti-FIV-p24,"FIV-p24 antigen [2]; topical Fel-O-Vax FIV + 0.3 A(1-7) in 2% HEC, Week 4",Undilute
same,SIgA Anti-FIV-p24,FIV-p24 antigen [2]; [9],Negative
same,SIgA Anti-FIV-p24,FIV-p24 antigen [2]; [10],Negative
same,SIgA Anti-FIV-p24,"FIV-p24 antigen [2]; topical Fel-O-Vax FIV + 0.4 A(1-7) in 2% HEC, Week 4",Undilute
same,SIgA Anti-FIV-p24,"FIV-p24 antigen [2]; topical Fel-O-Vax FIV + 0.4 A(1-7) in 2% HEC, Week 6",Undilute
same,SIgA Anti-FIV-p24,FIV-p24 antigen [2]; [11],Negative
same,SIgA Anti-FIV-p24,FIV-p24 antigen [2]; [12],Negative
same,SIgA Anti-FIV-p24,FIV-p24 antigen [2]; [13],Negative
same,SIgA Anti-FIV-p24,FIV-p24 antigen [2]; [14],Negative
same,SIgA Anti-FIV-p24,FIV-p24 antigen [2]; [15],Negative
same,SIgA Anti-FIV-p24,FIV-p24 antigen [2]; [16],Negative
same,SIgA Anti-FIV-p24,FIV-p24 antigen [2]; [17],Negative
same,SIgA Anti-FIV-p24,"FIV-p24 antigen [2]; topical Fel-O-Vax FIV + 10.0 A(1-7) in 2% HEC, Week 4",Negative
same,SIgA Anti-FIV-p24,FIV-p24 antigen [2]; [18],Negative
same,SIgA Anti-FIV-p24,FIV-p24 antigen [2]; [19],Negative
same,SIgA-anti-HIV-gp120 antibodies in vaginal secretions,HIV-gp120 antigen; [3],substantial
same,SIgA Anti-HIV gp120,HIV-gp120 antigen; topical Fel-O-Vax FIV + 0.1 A(1-7) in 2% HEC,Negative
same,SIgA Anti-HIV gp120,HIV-gp120 antigen; topical Fel-O-Vax FIV + 5.0 A(1-7) in 2% HEC,Negative
